The record followed here is US7314878B2, “Piperazine benzothiazoles as agents for the treatment of cerebral ischemic disorders or CNS disorders” (Laboratories Serono SA, priority 2002, dated 2008).

Like-named read-outs stand apart in the source and are kept apart here.

Series [1] has as its system neuronal death in CA1/CA2 subfields of the hippocampus. Nature of the series: Global ischemia in gerbils (bilateral carotid occlusion). The series is classed as in vivo. Conditions: 40 mg per kg ip, 15 min, 24 h and 48 h after reperfusion; gerbil. An excerpt:
b) Global Ischemia in Gerbils
The ability of the JNK inhibitors described in formula I to protect cell death during a stroke event may be assessed using the following protocol:
The gerbil bilateral carotid occlusion is a well-described animal model of acute ischemic stroke and involves relatively easy surgical techniques.
The neuronal degeneration in the hippocampus develops over several days and is often referred as “delayed neuronal death”. In addition, the neurodegeneration observed histologically is obvious and easily quantified (11). Furthermore, the histopathology seen in the gerbil is similar to that observed in the hippocampal CA1 region of the human brain following a cardiac arrest. Behavior observations, such as memory tests, could even be performed in the case of gerbils. This kind of tests for appreciation of the degree of recovery is not easily manageable in other models such as in rat whose learning abilities are much poorer (12).
The neuroprotective effect according to formula I to protect may be assessed using-the gerbil global ischemia model and such a protocol: […]

The nature of series [2]: Assessment of the BBB passage: brain and plasma sampling. It counts as in vivo, Sprague Dawley rats. As to conditions: rat, i.v. 10 mg/kg; for concentration at 0.25 h / concentration at 0.5 h / concentration at 1 h: pooled n = 2. An excerpt:
c) Assessment of the BBB Passage: Brain and Plasma Sampling
The compounds of the present invention are useful in the treatment and/or prophylaxis of cerebral ischemic disorders or CNS disorders. Specifically, the compounds of the present invention show a good capacity to cross the blood-brain barrier (EBB). The BBB passing capacity of the compounds according to formulae I or II may be assessed using the below protocols. The objective of this assay is to quantify the amount of the test compounds according to formulae I or II in the brain of rats following i.v. administration.
Six male Crl:CD(SD)Br Sprague Dawley rats (about 8 weeks old and having a weight of about 300 g) were divided into the 3 following groups:
2 animals for i.v. administration (10 mg/kg of test compound of formula I in 0.9% NaCl for injection). The test compound is administered by single dose (dose regimen). The sampling is performed at 0.25 h after sacrifice.
2 animals for i.v. administration (10 mg/kg of test compound of formula I in 0.9% NaCl for injection). The test compound is administered by single dose (dose regimen). The sampling is performed at 0.5 h after sacrifice.
2 animals for i.v. administration (10 mg/kg of test compound of formula I in 0.9% NaCl for injection). The test compound is administered by single dose (dose regimen). The sampling is performed at 1 h after sacrifice.
At each scheduled killing time, the animals of the corresponding group are deeply anaesthetised with diethyl ether. The blood for the corresponding blood samples is collected into heparinised tubes and centrifuged to remove the blood cells thus providing plasma. Plasma samples obtained at each sampling time (i.e. at t=0.25 h, 0.5 h, 1 h) from the rats of each group after administration of the test compound of formula (I) are pooled in order to obtain 1 pooled sample per sampling time per group. Rats are then sacrificed by exsanguination.
For the-brain sampling, the whole brain (cerebrum and cerebellum) of the sacrificed animals is removed. Brain from two animals per sampling time (i.e. at t=0.25 h, 0.5 h, 1 h after administration) are pooled in order to obtain one pooled sample per sampling time. Each pooled sample is homogenized in a solvent mixture (acetonitrile/methanol/dimethyl-sulfoxide, 50:48:2 by volume) centrifuged and the supernatant analyzed for the test compound.
Concentrations in plasma samples and brain homogenates are quantified according to an analytical HPLC-MS/MS method, properly developed for the compound.
The test compound used in this assay is the one set out in Example 1 (i.e. 1,3-benzothiazol-2-yl[2-({4-[(4-methylpiperazin-1-yl)methyl]-benzyl}oxy)pyrimidin-4-yl]acetonitrile.

On to `CN1CCN(Cc2ccc(COc3nccc(C(C#N)c4nc5ccccc5s4)n3)cc2)CC1` (centres unmarked) [Example 1, 1,3-benzothiazol-2-yl[2-({4-[(4-methylpiperazin-1-yl)methyl]-benzyl}-oxy)pyrimidin-4yl]acetonitrile], for which the “inhibition of neuronal death” value in series [1] was “about 60%”. The concentration at 0.25 h in series [2] (male, Crl:CD(SD)Br Sprague Dawley, brain, iv, 0.25 h, read-out: Brain concentration) was found to be 919 ng/g; in series [2] (male, Crl:CD(SD)Br Sprague Dawley, plasma, iv, 0.25 h, read-out: Plasma concentration), 2840 ng/mL. The concentration at 0.5 h in series [2] (male, Crl:CD(SD)Br Sprague Dawley, brain, iv, 0.5 h, read-out: Brain concentration) stood at 657 ng/g; in series [2] (male, Crl:CD(SD)Br Sprague Dawley, plasma, iv, 0.5 h, read-out: Plasma concentration), 2160 ng/mL. The concentration at 1 h in series [2] (male, Crl:CD(SD)Br Sprague Dawley, brain, iv, 1 h, read-out: Brain concentration) is 679 ng/g; in series [2] (male, Crl:CD(SD)Br Sprague Dawley, plasma, iv, 1 h, read-out: Plasma concentration) it was 1980 ng/mL. Further, the Kp at 0.25 h in series [2] (male, Crl:CD(SD)Br Sprague Dawley, brain/plasma, iv, 0.25 h, read-out: Brain/Plasma ratio) was 0.32. Further, in series [2] (male, Crl:CD(SD)Br Sprague Dawley, brain/plasma, iv, 0.5 h, read-out: Brain/Plasma ratio), the Kp at 0.5 h turned out to be 0.3. For the same compound, the Kp at 1 h in series [2] (male, Crl:CD(SD)Br Sprague Dawley, brain/plasma, iv, 1 h, read-out: Brain/Plasma ratio) was 0.34. Further, the “passage into the brain” value in series [2] (0.25-1 h) was “considerable and sustained passage of the test compound into the brain”.
